What was measured:
[1] = tested on: A431 vulval carcinoma cells (s.c. tumor); assay: Subcutaneous injection of A431 cells in rats: s.c. tumor growth; assay type: in vivo, rat; settings: for Treatment versus Control (taking control as 100%), median s.c. A431 tumor volume: day 18, 24 hr after last treatment; for Effect on subcutaneous A431 tumor growth (median s.c. tumor volumes, FIG. 1): MTKI 1 p.o. at all doses tested (50, 75, 100 mpk), BCNU i.v. day 4 and day 18
Procedure: A431 (ATCC, Rockville, Md. USA) vulval carcinoma cells were stereo-tactically injected into athymic nude rats and mice. Tumor growth delay was followed by using animal survival as readout in the rat study or using MRI imaging in the case of the mouse study. Subcutaneous Injection of Cells in Rats The same day of the stereotaxic injection, rats were injected subcutaneously with A431 cells at D0. The tumor was obtained in rats by subcutaneous (SC) injection of 1×10^7 A431 cells in RPMI medium (200 μl) in their right flank. For subcutaneous injection of tumor cells, rats were anesthetised by inhalation of Isoflurane Forene (Minerve, Bondoufle, France). MTKI 1 (Compound 1 in the figures hereinafter) was dissolved in a solution of 20% Hydroxypropyl-β-cyclodextrine (20% β-HP-Cyclodextrin, pH 4.0) and given by oral gavage, daily for a period of fourteen days starting four days post inoculation of the cells, i.e. from day 4-17. Vehicle treated animals only received the β-HP-Cyclodextrin solution. The reference compound BCNU (Carmustin) was dosed intravenously on day 4 and day 18.

[2] = tested on: A431 vulval carcinoma cells (intracranial tumor); assay: Stereotaxic injection of A431 cells in the brain of rats: animal survival; assay type: in vivo, rat; settings: rats with intracranial and s.c. A431 tumors, vehicle 49
Excerpt: A431 (ATCC, Rockville, Md. USA) vulval carcinoma cells were stereo-tactically injected into athymic nude rats and mice. Tumor growth delay was followed by using animal survival as readout in the rat study or using MRI imaging in the case of the mouse study.
Stereotaxic Injection of Cells in the Brain of Rats
Forty (40) rats (Wistar, BDIX or Sprague Dawley) in part I and 40 nude rats were sterotaxically injected with cells at D0. For stereotaxic injection of tumor cells, rats were anesthetised by an intramuscular injection of a Ketamine (Ketamine500®, Ref 043KET204, Centravet, France) and Xylazine (Rompun®, Ref 002ROM001, Centravet, France) mixture (2/1, v/v, 70 and 15 mg/kg, respectively). 1×10^5 A431 Cells were stereotaxically injected using 4 independant stereotaxic apparatus (Kopf Instrument, Germany and Stoelting Company, USA) in the right frontal lobe with 1×10^5 tumor cells re-suspended in 5 μl of RPMI medium. Five μl of the cell suspension was injected according to SOP No TEC-083/001 at 0.5 μl/min. After cells injection, rats were observed during 1 hour.
(§1) MTKI 1 (Compound 1 in the figures hereinafter) was dissolved in a solution of 20% Hydroxypropyl-β-cyclodextrine (20% β-HP-Cyclodextrin, pH 4.0) and given by oral gavage, daily for a period of fourteen days starting four days post inoculation of the cells, i.e. from day 4-17. Vehicle treated animals only received the β-HP-Cyclodextrin solution.
(§2) The reference compound BCNU (Carmustin) was dosed intravenously on day 4 and day 18.

[3] = Clinical signs of toxicity (body weight loss, behavioral changes) in treated tumor-bearing rats; settings: high dose 15 mpk i.v. day 4 and day 18
Procedure: as §1, §2

Row | SMILES | Treatment versus Control (taking control as 100%), median s.c. A431 tumor volume ([1]; 50 mpk p.o. QDx14 (day 4-17)) [%] | Treatment versus Control (taking control as 100%), median s.c. A431 tumor volume ([1]; 75 mpk p.o. QDx14 (day 4-17)) [%] | Treatment versus Control (taking control as 100%), median s.c. A431 tumor volume ([1]; 100 mpk p.o. QDx14 (day 4-17)) [%] | Effect on subcutaneous A431 tumor growth (median s.c. tumor volumes, FIG. 1) [1] | Survival times (50%) ([2]; 50 mpk p.o. daily day 4-17) [days] | Survival times (50%) ([2]; 75 mpk p.o. daily day 4-17) [days] | Survival times (50%) ([2]; 100 mpk p.o. daily day 4-17) [days] | Clinical signs of toxicity, i.e. body weight loss [3]
1 | COc1cc2ncnc3c2cc1OCCCCCN(C)Cc1ccc(Br)cc1N3 [MTKI 1, 4,6-ethanediylidenepyrimido[4,5-b][6,1,12]benzoxadiazacyclo-pentadecine, 17-bromo-8,9,10,11,12,13,14,19-octahydro-20-methoxy-13-methyl] | 5.37 | 4.29 | 3.17 | clearly inhibited | 61 | 83 | 88 | –
2 | O=NN(CCCl)C(=O)NCCCl [BCNU, reference compound] | – | – | – | no effect | – | – | – | may have induced some mild toxicity

Source: patent publication US20080153853A1, “USE OF MTKI 1 FOR TREATING OR PREVENTING BRAIN CANCER” (priority 2006, published 2008)
